Active and inactive are the calls of the source.
What was measured:
[1] = target: T1, Rab-like protein 3 (Homo sapiens, UniProt Q5HYI8)
T1 sequence (Q5HYI8 whole entry): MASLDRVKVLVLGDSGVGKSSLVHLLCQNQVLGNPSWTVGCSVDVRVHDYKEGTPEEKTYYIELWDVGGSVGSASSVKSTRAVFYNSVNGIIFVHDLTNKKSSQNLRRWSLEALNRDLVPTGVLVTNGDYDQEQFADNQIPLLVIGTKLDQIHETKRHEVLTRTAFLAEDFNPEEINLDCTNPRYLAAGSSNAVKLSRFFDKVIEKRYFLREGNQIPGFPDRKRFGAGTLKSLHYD

[2] = target: NADH dehydrogenase [ubiquinone] 1 alpha subcomplex subunit 13 (Homo sapiens, UniProt Q9P0J0)
[3] = target: Fibroblast growth factor receptor 1 (Homo sapiens, UniProt P11362)
[4] = target: T2, STE20-related kinase adapter protein alpha (Homo sapiens, UniProt Q7RTN6)
T2 sequence (Q7RTN6 whole entry): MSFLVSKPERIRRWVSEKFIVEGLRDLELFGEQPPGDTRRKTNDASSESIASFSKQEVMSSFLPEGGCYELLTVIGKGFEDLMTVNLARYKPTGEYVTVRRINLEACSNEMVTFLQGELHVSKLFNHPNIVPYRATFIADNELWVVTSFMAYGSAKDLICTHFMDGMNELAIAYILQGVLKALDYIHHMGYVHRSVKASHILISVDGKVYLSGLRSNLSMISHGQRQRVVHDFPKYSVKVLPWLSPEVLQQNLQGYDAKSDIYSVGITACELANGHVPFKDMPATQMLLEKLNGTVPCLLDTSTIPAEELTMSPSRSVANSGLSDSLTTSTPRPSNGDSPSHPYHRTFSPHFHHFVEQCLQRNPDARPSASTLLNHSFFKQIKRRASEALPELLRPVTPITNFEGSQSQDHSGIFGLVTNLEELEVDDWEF

[5] = target: T3, Signal recognition particle receptor subunit alpha (Homo sapiens, UniProt P08240)
T3 sequence (P08240 whole entry): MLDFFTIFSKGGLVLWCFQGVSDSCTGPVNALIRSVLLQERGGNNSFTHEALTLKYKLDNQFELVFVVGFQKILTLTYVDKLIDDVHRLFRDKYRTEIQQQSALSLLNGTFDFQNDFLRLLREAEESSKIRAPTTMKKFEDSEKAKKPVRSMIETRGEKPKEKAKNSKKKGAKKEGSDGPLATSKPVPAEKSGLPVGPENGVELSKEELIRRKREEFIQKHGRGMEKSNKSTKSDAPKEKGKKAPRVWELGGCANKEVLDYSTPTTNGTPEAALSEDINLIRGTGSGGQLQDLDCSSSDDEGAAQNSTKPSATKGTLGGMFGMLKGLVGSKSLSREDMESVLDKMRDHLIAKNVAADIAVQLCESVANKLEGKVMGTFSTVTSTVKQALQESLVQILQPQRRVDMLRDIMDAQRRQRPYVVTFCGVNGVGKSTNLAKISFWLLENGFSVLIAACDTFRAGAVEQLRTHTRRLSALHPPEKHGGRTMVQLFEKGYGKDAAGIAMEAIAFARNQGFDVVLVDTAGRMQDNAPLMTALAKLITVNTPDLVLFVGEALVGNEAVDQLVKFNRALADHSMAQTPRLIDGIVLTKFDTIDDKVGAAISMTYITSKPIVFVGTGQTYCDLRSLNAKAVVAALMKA

[6] = target: T4, Inhibitor of nuclear factor kappa-B kinase subunit epsilon (Homo sapiens, UniProt Q14164)
T4 sequence (Q14164 whole entry): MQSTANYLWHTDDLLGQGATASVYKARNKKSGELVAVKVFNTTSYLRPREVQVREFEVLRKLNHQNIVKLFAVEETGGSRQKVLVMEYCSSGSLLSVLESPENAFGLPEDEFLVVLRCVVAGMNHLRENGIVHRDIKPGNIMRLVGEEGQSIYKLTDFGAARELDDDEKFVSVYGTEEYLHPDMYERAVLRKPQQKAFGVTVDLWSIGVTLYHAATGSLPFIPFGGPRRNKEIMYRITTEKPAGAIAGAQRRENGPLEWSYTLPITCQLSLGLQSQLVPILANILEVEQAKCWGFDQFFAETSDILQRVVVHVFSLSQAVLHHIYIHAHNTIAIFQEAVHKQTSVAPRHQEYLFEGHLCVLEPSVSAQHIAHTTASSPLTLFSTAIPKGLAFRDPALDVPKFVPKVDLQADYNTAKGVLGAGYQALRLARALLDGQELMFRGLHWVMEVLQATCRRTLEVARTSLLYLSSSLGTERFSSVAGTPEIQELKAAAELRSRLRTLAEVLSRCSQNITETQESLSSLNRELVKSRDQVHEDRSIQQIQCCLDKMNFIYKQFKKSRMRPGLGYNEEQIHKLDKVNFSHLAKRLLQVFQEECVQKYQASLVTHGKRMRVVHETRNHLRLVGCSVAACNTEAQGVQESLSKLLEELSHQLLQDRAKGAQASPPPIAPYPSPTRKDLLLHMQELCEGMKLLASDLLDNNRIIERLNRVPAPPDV

[7] = target: Serine/threonine-protein kinase N2 (Homo sapiens, UniProt Q16513)
[8] = target: Calcium/calmodulin-dependent protein kinase type II subunit gamma (Homo sapiens, UniProt Q13555)
[9] = target: Mitogen-activated protein kinase 1 (Homo sapiens, UniProt P28482)
[10] = target: T5, Uncharacterized protein FLJ45252 (Homo sapiens, UniProt Q6ZSR9); conditions: read-out: Kd apparent; k-562, colo 205, sk-n-be(2) and mv-4-11
T5 sequence (Q6ZSR9 whole entry): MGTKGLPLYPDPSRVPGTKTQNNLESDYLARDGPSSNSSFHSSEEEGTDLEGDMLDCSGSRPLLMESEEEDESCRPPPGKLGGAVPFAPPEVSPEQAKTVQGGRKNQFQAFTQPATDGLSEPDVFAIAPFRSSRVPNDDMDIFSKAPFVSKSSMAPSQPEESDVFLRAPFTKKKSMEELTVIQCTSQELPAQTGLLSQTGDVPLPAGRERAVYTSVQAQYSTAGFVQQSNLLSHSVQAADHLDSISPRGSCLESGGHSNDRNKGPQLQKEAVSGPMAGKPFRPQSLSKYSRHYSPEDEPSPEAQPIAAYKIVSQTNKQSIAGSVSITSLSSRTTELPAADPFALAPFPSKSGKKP
Also: in the data inactive means no Kd found up to 30 µM.

Mitogen-activated protein kinase 1, sequence (P28482 whole entry): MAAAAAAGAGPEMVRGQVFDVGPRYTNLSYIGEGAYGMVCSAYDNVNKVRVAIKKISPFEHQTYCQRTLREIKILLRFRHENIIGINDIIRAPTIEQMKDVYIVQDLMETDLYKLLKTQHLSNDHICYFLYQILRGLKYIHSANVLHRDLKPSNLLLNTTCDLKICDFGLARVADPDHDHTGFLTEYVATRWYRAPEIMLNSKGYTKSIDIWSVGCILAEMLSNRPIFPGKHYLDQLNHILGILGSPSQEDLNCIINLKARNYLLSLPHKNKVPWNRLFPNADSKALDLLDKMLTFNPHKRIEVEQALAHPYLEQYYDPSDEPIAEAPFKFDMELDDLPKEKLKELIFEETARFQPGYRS
NADH dehydrogenase [ubiquinone] 1 alpha subcomplex subunit 13, sequence (Q9P0J0 whole entry, one chain of several): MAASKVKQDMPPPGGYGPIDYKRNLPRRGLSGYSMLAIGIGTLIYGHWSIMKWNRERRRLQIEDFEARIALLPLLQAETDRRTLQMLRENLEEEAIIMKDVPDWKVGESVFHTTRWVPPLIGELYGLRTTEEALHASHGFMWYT
Fibroblast growth factor receptor 1, sequence (P11362 whole entry): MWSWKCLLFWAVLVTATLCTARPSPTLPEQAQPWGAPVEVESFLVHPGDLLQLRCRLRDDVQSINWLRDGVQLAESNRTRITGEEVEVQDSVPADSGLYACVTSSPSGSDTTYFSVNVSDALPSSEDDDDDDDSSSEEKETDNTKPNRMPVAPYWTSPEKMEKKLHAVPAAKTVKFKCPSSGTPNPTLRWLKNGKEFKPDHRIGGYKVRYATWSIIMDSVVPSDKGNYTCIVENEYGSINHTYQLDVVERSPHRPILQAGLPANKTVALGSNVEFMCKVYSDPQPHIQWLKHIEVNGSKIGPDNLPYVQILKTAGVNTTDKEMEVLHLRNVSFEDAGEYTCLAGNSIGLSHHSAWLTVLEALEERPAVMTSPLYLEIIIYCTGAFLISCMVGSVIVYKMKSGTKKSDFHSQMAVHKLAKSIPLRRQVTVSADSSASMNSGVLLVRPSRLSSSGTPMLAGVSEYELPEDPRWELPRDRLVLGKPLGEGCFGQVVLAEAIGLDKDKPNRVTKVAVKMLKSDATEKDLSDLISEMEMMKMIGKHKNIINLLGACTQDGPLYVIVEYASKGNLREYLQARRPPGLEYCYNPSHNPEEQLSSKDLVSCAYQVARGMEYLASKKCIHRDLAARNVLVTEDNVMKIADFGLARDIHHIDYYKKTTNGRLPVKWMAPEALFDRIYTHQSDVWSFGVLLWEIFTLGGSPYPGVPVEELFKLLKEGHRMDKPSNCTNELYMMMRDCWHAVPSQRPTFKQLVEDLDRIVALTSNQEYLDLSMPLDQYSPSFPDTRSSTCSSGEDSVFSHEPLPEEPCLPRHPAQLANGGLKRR
Serine/threonine-protein kinase N2, sequence (Q16513 whole entry): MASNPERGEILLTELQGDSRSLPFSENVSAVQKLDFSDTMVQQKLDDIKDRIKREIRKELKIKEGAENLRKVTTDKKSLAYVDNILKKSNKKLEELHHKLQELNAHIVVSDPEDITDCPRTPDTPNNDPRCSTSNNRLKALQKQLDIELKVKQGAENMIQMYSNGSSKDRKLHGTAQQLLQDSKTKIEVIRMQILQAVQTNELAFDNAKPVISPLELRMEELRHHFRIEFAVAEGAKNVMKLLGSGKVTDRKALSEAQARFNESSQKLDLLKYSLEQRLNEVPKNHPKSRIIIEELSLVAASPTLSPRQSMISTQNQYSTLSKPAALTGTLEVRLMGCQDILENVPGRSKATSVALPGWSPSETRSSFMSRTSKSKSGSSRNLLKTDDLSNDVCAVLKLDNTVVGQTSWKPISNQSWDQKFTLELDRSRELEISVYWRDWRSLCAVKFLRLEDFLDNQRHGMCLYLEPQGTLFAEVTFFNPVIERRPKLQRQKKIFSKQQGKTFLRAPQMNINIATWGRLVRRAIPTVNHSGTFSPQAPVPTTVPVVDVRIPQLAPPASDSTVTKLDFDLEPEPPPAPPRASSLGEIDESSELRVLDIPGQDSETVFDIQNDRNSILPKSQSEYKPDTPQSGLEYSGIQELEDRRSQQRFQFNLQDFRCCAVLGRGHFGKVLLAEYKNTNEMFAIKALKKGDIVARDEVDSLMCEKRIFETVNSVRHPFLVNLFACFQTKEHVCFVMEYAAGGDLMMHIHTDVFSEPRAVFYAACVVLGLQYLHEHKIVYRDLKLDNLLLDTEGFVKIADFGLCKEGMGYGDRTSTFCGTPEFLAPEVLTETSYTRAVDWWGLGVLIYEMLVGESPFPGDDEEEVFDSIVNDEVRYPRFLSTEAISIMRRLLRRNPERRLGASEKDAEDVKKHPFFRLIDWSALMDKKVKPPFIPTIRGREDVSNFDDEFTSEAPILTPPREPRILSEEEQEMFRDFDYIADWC
Calcium/calmodulin-dependent protein kinase type II subunit gamma, sequence (Q13555 whole entry): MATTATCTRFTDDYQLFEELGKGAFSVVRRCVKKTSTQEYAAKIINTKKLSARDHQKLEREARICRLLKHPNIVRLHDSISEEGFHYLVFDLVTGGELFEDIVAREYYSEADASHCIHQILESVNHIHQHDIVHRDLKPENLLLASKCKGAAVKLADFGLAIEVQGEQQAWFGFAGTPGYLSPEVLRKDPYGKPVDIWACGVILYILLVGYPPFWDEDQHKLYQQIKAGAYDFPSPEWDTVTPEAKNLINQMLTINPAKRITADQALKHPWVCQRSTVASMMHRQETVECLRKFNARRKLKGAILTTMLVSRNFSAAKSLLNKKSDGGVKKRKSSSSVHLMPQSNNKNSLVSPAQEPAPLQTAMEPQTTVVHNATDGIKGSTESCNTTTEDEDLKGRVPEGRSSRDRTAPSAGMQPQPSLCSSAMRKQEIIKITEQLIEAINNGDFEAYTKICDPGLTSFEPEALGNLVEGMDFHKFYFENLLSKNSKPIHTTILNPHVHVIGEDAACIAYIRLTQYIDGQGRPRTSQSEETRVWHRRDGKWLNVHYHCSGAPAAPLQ

Row | Kd [1] | Kd [2] | Kd [3] | Kd [4] | Kd [5] | Kd [6] | Kd [7] | Kd [8] | Kd [9] | Kd [10] | Structure (SMILES)
1 | > 30 µM (inactive) | > 30 µM (inactive) | > 30 µM (inactive) | > 30 µM (inactive) | > 30 µM (inactive) | > 30 µM (inactive) | > 30 µM (inactive) | > 30 µM (inactive) | > 30 µM (inactive) | > 30 µM (inactive) | C[C@@H]1COC(Nc2ccc3ncnc(Nc4ccc(OCc5nccs5)c(Cl)c4)c3c2)=N1 [VARLITINIB]
2 | > 30 µM (inactive) | > 30 µM (inactive) | > 30 µM (inactive) | > 30 µM (inactive) | > 30 µM (inactive) | > 30 µM (inactive) | > 30 µM (inactive) | > 30 µM (inactive) | > 30 µM (inactive) | > 30 µM (inactive) | COc1cc2nccc(Oc3ccc(NC(=O)C4(C(=O)Nc5ccc(F)cc5)CC4)cc3)c2cc1OC [CABOZANTINIB]
3 | > 30 µM (inactive) | > 30 µM (inactive) | > 30 µM (inactive) | > 30 µM (inactive) | > 30 µM (inactive) | > 30 µM (inactive) | > 30 µM (inactive) | > 30 µM (inactive) | > 30 µM (inactive) | > 30 µM (inactive) | CNC(=O)c1cccc(-c2ccc3c(N4CCOC[C@@H]4C)nc(N4CCOC[C@@H]4C)nc3n2)c1 [VISTUSERTIB]
4 | > 30 µM (inactive) | > 30 µM (inactive) | > 30 µM (inactive) | > 30 µM (inactive) | > 30 µM (inactive) | > 30 µM (inactive) | > 30 µM (inactive) | > 30 µM (inactive) | > 30 µM (inactive) | > 30 µM (inactive) | S=C(NCc1ccc2c(c1)OCO2)N1CCN(c2ncnc3c2oc2ccccc23)CC1 [AMUVATINIB]
5 | > 30 µM (inactive) | > 30 µM (inactive) | > 30 µM (inactive) | > 30 µM (inactive) | > 30 µM (inactive) | > 30 µM (inactive) | > 30 µM (inactive) | > 30 µM (inactive) | > 30 µM (inactive) | > 30 µM (inactive) | CC(C)(O)CC(=O)NCCn1ccc2ncnc(Nc3ccc(Oc4cccc(C(F)(F)F)c4)c(Cl)c3)c21 [TAK-285]
6 | > 30 µM (inactive) | > 30 µM (inactive) | > 30 µM (inactive) | > 30 µM (inactive) | > 30 µM (inactive) | > 30 µM (inactive) | > 30 µM (inactive) | > 30 µM (inactive) | > 30 µM (inactive) | > 30 µM (inactive) | COc1cc2ncnc3c2cc1OCCCCCN(C)Cc1ccc(Br)cc1N3 [JNJ-26483327]
7 | > 30 µM (inactive) | > 30 µM (inactive) | > 30 µM (inactive) | > 30 µM (inactive) | > 30 µM (inactive) | > 30 µM (inactive) | > 30 µM (inactive) | > 30 µM (inactive) | > 30 µM (inactive) | > 30 µM (inactive) | O=C(O)c1ccc2c(c1)nc(Nc1cccc(Cl)c1)c1ccncc12 [SILMITASERTIB]
8 | > 30 µM (inactive) | > 30 µM (inactive) | > 30 µM (inactive) | > 30 µM (inactive) | > 30 µM (inactive) | > 30 µM (inactive) | > 30 µM (inactive) | > 30 µM (inactive) | > 30 µM (inactive) | > 30 µM (inactive) | COc1cc2ncnc(Nc3ccc(F)c(Cl)c3)c2cc1NC(=O)/C=C/CN1CCCCC1 [DACOMITINIB ANHYDROUS]
9 | > 30 µM (inactive) | > 30 µM (inactive) | > 30 µM (inactive) | > 30 µM (inactive) | > 30 µM (inactive) | > 30 µM (inactive) | > 30 µM (inactive) | > 30 µM (inactive) | > 30 µM (inactive) | > 30 µM (inactive) | COc1ccc2c(OCc3nnc4ccc(-c5ccccc5)nn34)ccnc2c1 [AMG-208]
10 | > 30 µM (inactive) | > 30 µM (inactive) | > 30 µM (inactive) | > 30 µM (inactive) | > 30 µM (inactive) | > 30 µM (inactive) | > 30 µM (inactive) | > 30 µM (inactive) | > 30 µM (inactive) | > 30 µM (inactive) | O=C(NC[C@H](O)CO)c1ccncc1Nc1ccc(I)cc1F [PIMASERTIB]
11 | > 30 µM (inactive) | > 30 µM (inactive) | > 30 µM (inactive) | > 30 µM (inactive) | > 30 µM (inactive) | > 30 µM (inactive) | > 30 µM (inactive) | > 30 µM (inactive) | > 30 µM (inactive) | > 30 µM (inactive) | C#Cc1cccc(Nc2ncnc3cc4c(cc23)OCCOCCOCCO4)c1 [ICOTINIB]

Row | Structure (SMILES) | Kd [1] | Kd [2] | Kd [3] | Kd [4] | Kd [5] | Kd [6] | Kd [7] | Kd [8] | Kd [9] | Kd [10]
12 | Cc1c(Cn2c(C)nc3c(C(=O)O)cc(N4CCOCC4)cc32)cccc1C(F)(F)F [GSK-2636771] | > 30 µM (inactive) | > 30 µM (inactive) | > 30 µM (inactive) | > 30 µM (inactive) | > 30 µM (inactive) | > 30 µM (inactive) | > 30 µM (inactive) | > 30 µM (inactive) | > 30 µM (inactive) | > 30 µM (inactive)
